Assay: Photocuring / inverted vial test of aqueous adhesive solution
Assay type: physicochemical
Details: aqueous solution with LAP 50.9 mM, 395 nm light
Description: The minimum concentration of the monomer and the crosslinker that leads to a solid material after curing is 892.8 mM and 161.8 mM, respectively. The high hydrophilicity of both compounds allows the formation of a highly concentrated aqueous solution. After the photoinitiator (LAP) addition and the application of 395 nm wavelength light, radicals are formed, and a polymeric crosslinked network is created according to the reaction (FIG. 9). The solution solidifies after 10 sec of exposure to the UV light (FIGS. 10A-B). FIG. 10A has a vial (892.8 mM KDOPA-MA and 161.8 mM (KDOPA)2-DMA) and FIG. 10B (297.6 mM KDOPA-MA and 53.9 mM (KDOPA)2-DMA). In both cases, the LAP concentration was constant (50.9 mM) and the UV light was applied for 10 sec. When the concentration of the compounds decreases, the solution remains liquid and becomes cloudier after curing. […] FIG. 11A illustrates 15% crosslinker molar ratio. FIG. 11B illustrates 45% crosslinker molar ratio.
The adhesive was prepared using the formulation of Table 1. An aqueous solution of LAP photoinitiator (15 mg/ml), KDOPA-MA (350 mg/ml) and (KDOPA)2-DMA (145 mg/ml) was prepared by mixing and vortexing for 10 sec. Throughout the text this formulation mentioned KDopa glue. When KDOPA-MA was replaced with KY-MA (the (KDOPA)2-DMA crosslinker remains the same) disclosed embodiments have the KY glue. […]

minimum concentration that leads to a solid material after curing [mM]	Substance
161.8	Lys-DOPA dimethacrylate [(KDOPA)2-DMA]
892.8	Lys-DOPA methacrylate [KDOPA-MA]

From patent US12691199B2, “Mussel-inspired photoreactive instant glue for environmental and biomedical applications” (KING ABDULLAH UNIVERSITY OF SCIENCE AND TECHNOLOGY, priority 2022, dated 2026)
